US8735584B2 (Merck Patent GmbH, priority 2008, dated 2014)

What was measured:
Format in all cases: biochemical
ABL = biological target: T1, ABL (Homo sapiens, UniProt P00519); assay: Desktop Profiler kinase panel, ABL; conditions: 10 micromolar concentration of the compound; read-out: Percent Inhibition ABL
T1 construct: purchased Caliper Life Sciences
How it was run: (§1)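 Pre-plated frozen kinases received compound at a single concentration, then a premixed fluorescent peptide substrate/ATP mix; 90 min at 25 C, stopped with EDTA buffer (pH 7.5). Mobility-shift electrophoresis resolved phosphorylated from unphosphorylated peptide; percent inhibition calculated versus no-inhibitor and no-ATP controls.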

AKT2 = biological target: T2, AKT2 (Homo sapiens, UniProt P31751); assay: Desktop Profiler kinase panel, AKT2; conditions: 10 micromolar concentration of the compound; read-out: Percent Inhibition AKT2
T2 construct: purchased Caliper Life Sciences
Protocol: (§2) The Aurora assays described here are performed on two Caliper Life Sciences systems: the LC3000 and the Desktop Profiler. These provide data on enzyme activity via measurement of the relative amounts of phosphorylated or unphosphorylated fluorescently labelled substrate peptide at the end of an enzymatic reaction. These different states of peptide are resolved by applying a potential difference across the sample. The presence of the charged phosphate group on the product (as opposed to the substrate) causes a different peptide mobility between the two peptides. This is visualized by excitation of the fluorescent label on the substrate and product peptides and represented as peaks within the analysis software.
(§3) The Desktop Profiler utilizes the same principle as the LC3000 for calculating percentage conversion of a substrate to product. Caliper Life Sciences provides proprietary flash frozen pre-made 384 well plates containing selected kinases. Each column in the 384 well plate contains a particular selected kinase. A second plate, the ‘substrate plate’ contains a mix of fluorescently labeled peptide substrate and ATP. These are arranged in columns so that transfer for substrate plate to enzyme plate provides the correct enzyme with the correct substrate/ATP concentration. Compounds are added to a thawed enzyme plate in the desired format, in single concentrations. Reactions are initiated by transfer of the substrate/ATP mix from the substrate plate. The enzyme plate is incubated for 90 mins at 25 C. The reaction is stopped by addition of 70 ul of Stop Buffer (100 mM HEPES pH 7.5, 0.015% Brij-35, 10 mM EDTA (Sigma, E7889)).
(§4) Reading of the plate in the Profiler is identical to the LC3000, and the ratio between substrate and product peaks provides the activity of the enzyme in that well. This is best represented by a plate heat map which colors each well by percent inhibition as compared to positive and negative controls (no inhibitors and no ATP respectively).
(§5) In the following Tables 3a-4-b, which show the results of the desktop profiler measurements, “+” means 50-70% inhibition, “++” means 70-90% inhibition, and “+++” means >90% inhibition. The enzymes tested for profiling were ABL, AKT1, AKT2, AurA, CHK1, CHK2, CK1d, Erk1, Erk2, FYN, GSK3b, INSR, LCK, LYN, MAPKAPK2, MET, MSK1, p38a, PKA, PKCz, PKD2, PRAK, RSK1 and SRC.

CHK2 = biological target: T3, CHK2 (Homo sapiens, UniProt O96017); assay: Desktop Profiler kinase panel, CHK2; conditions: 10 micromolar concentration of the compound; read-out: Percent Inhibition CHK2
T3 construct: purchased Caliper Life Sciences
T3 sequence (O96017 whole entry, species assumed): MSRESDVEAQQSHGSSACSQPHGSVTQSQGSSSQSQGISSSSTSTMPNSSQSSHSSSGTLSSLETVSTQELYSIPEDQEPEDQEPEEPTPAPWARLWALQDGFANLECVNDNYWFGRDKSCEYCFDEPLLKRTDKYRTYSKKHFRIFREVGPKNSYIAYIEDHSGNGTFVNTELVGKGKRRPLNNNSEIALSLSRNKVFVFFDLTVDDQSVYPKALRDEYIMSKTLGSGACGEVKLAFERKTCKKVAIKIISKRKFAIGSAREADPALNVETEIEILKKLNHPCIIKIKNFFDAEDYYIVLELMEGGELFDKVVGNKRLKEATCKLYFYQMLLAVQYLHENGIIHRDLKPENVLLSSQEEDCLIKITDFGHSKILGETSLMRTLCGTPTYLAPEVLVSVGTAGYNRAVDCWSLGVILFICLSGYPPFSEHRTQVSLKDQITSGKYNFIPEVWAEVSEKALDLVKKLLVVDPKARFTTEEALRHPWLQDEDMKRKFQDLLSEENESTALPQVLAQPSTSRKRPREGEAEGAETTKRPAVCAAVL
How it was run: as §1

CK1d = biological target: T4, CK1d (Homo sapiens, UniProt P48730); assay: Desktop Profiler kinase panel, CK1d; conditions: 10 micromolar concentration of the compound; read-out: Percent Inhibition CK1d
T4 construct: purchased Caliper Life Sciences
T4 sequence (P48730 whole entry): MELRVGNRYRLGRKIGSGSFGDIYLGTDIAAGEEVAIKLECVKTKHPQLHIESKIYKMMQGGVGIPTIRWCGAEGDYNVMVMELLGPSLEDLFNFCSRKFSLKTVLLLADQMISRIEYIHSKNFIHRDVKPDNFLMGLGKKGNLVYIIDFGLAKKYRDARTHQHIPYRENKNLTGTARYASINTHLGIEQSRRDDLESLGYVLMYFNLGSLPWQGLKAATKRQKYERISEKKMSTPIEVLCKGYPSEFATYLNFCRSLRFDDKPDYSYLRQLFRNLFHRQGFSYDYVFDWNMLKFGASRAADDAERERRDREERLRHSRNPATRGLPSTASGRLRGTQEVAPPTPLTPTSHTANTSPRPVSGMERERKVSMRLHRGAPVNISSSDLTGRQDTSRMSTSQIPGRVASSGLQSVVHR
Protocol: as §2, §3, §4, §5

FYN = biological target: T5, FYN (Homo sapiens, UniProt P06241); assay: Desktop Profiler kinase panel, FYN; conditions: 10 micromolar concentration of the compound; read-out: Percent Inhibition FYN
T5 construct: purchased Caliper Life Sciences
T5 sequence (P06241 whole entry, species assumed): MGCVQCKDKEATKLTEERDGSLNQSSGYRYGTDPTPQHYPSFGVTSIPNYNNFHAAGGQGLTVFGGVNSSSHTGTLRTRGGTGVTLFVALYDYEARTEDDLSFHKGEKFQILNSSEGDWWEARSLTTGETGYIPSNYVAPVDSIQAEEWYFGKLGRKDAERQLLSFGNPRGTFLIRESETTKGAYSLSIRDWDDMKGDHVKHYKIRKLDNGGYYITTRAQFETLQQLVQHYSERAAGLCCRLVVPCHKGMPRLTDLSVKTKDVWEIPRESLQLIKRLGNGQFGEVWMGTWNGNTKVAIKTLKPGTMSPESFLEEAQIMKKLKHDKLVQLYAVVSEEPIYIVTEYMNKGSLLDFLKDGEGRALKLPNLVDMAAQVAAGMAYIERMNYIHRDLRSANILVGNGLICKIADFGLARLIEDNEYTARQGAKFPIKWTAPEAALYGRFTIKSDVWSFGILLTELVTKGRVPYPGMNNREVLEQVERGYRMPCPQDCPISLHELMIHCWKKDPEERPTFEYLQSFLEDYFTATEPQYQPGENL
How it was run: as §1

GSK3b = biological target: T6, GSK3b (Homo sapiens, UniProt P49841); assay: Desktop Profiler kinase panel, GSK3b; conditions: 10 micromolar concentration of the compound; read-out: Percent Inhibition GSK3b
T6 construct: purchased Caliper Life Sciences
T6 sequence (P49841 whole entry, species assumed): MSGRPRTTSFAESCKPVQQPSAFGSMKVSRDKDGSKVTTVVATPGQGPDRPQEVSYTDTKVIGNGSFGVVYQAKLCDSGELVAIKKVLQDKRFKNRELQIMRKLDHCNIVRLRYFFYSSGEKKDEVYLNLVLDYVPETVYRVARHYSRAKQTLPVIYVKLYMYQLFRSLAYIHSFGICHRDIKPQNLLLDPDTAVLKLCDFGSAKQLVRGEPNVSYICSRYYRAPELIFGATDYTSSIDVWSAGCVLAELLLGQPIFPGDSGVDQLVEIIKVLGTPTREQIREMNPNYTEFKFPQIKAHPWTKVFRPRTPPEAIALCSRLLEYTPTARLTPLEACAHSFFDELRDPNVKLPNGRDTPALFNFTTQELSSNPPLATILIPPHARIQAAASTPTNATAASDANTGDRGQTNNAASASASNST
Protocol: as §2, §3, §4, §5

LYN = biological target: T7, LYN (Homo sapiens, UniProt P07948); assay: Desktop Profiler kinase panel, LYN; conditions: 10 micromolar concentration of the compound; read-out: Percent Inhibition LYN
T7 construct: purchased Caliper Life Sciences
T7 sequence (P07948 whole entry, species assumed): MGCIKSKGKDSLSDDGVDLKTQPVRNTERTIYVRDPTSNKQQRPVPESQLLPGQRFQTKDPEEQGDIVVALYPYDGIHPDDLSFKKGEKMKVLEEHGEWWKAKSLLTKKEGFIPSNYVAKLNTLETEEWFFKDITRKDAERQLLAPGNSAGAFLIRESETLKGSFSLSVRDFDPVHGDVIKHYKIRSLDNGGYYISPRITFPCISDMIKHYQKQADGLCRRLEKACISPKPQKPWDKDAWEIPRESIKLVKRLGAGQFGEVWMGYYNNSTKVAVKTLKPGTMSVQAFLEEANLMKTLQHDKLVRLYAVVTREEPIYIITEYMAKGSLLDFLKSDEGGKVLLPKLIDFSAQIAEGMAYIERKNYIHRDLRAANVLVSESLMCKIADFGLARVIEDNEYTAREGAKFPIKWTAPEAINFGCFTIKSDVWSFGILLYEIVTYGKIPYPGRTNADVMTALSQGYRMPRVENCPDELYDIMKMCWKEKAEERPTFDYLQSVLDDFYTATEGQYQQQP
How it was run: as §1

MSK1 = biological target: T8, MSK1 (Homo sapiens, UniProt O75582); assay: Desktop Profiler kinase panel, MSK1; conditions: 10 micromolar concentration of the compound; read-out: Percent Inhibition MSK1
T8 construct: purchased Caliper Life Sciences
T8 sequence (O75582 whole entry, species assumed): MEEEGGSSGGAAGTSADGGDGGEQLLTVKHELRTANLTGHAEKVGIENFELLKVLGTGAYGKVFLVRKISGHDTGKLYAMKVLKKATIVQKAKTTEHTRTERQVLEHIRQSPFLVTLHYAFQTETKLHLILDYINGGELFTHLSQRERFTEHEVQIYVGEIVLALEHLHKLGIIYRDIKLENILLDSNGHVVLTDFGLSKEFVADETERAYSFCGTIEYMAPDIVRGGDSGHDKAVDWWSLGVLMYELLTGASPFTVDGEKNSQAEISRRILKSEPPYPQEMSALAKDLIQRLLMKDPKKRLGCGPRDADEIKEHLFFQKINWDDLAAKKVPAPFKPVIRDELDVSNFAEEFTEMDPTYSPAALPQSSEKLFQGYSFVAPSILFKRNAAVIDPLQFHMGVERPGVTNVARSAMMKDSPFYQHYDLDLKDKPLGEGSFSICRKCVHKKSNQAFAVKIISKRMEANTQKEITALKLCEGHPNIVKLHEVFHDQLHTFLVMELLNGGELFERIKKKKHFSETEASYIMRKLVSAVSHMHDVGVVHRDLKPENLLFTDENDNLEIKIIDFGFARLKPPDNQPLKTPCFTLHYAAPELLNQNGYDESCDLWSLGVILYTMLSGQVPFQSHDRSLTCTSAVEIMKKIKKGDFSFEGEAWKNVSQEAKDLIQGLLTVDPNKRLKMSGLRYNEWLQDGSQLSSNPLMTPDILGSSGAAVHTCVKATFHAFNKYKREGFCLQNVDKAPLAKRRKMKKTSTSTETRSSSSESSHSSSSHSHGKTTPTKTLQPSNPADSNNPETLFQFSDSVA
Protocol: as §2, §3
as §4, with “respectively). […]” for “respectively).”

PKA = biological target: T9, PKA (Homo sapiens, UniProt P17612); assay: Desktop Profiler kinase panel, PKA; conditions: 10 micromolar concentration of the compound; read-out: Percent Inhibition PKA
T9 construct: purchased Caliper Life Sciences
Protocol: as §2, §3, §4, §5

PKD2 = biological target: T10, PKD2 (Homo sapiens, UniProt Q9BZL6); assay: Desktop Profiler kinase panel, PKD2; conditions: 10 micromolar concentration of the compound; read-out: Percent Inhibition PKD2
T10 construct: purchased Caliper Life Sciences
T10 sequence (Q9BZL6 1-878): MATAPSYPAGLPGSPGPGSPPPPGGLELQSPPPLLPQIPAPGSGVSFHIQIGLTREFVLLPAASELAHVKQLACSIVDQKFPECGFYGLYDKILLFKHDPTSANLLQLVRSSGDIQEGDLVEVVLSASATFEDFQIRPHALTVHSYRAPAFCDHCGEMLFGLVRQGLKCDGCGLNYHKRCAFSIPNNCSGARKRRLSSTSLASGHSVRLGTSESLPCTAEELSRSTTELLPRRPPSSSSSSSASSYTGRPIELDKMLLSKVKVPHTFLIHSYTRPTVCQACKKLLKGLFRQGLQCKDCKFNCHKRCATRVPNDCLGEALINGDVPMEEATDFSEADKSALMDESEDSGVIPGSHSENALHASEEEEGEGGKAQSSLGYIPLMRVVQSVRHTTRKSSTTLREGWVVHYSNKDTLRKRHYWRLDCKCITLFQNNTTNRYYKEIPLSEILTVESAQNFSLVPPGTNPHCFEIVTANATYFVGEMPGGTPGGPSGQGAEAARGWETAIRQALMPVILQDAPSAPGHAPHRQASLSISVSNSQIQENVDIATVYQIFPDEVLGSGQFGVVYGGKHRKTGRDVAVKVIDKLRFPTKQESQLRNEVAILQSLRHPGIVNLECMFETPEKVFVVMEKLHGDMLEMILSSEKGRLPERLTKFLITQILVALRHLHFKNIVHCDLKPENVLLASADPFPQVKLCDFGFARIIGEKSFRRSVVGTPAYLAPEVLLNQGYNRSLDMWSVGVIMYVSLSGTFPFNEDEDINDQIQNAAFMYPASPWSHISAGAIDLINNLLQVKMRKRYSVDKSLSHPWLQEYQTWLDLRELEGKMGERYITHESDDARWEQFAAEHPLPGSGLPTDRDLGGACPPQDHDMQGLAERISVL
Protocol: as §2, §3, §4, §5

RSK1 = biological target: T11, RSK1 (Homo sapiens, UniProt Q15418); assay: Desktop Profiler kinase panel, RSK1; conditions: 10 micromolar concentration of the compound; read-out: Percent Inhibition RSK1
T11 construct: purchased Caliper Life Sciences
Protocol: as §2, §3, §4, §5

SRC = biological target: T12, SRC (Homo sapiens, UniProt P12931); assay: Desktop Profiler kinase panel, SRC; conditions: 10 micromolar concentration of the compound; read-out: Percent Inhibition SRC
T12 construct: purchased Caliper Life Sciences
T12 sequence (P12931 whole entry, species assumed): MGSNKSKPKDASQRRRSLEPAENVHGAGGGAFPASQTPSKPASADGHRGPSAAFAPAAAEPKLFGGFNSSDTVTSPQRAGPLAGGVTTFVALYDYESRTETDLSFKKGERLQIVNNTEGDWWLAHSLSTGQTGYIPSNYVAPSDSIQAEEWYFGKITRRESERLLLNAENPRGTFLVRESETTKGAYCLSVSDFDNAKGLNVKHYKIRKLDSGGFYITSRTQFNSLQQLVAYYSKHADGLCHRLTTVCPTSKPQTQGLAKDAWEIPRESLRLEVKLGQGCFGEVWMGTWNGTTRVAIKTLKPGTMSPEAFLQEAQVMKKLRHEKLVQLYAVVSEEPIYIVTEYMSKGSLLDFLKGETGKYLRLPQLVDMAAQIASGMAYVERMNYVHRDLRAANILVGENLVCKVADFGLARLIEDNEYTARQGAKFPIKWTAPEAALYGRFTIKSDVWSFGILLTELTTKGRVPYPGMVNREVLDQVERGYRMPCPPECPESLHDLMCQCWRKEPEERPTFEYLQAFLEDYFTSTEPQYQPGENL
How it was run: as §1

T1 sequence (P00519 whole entry, species assumed): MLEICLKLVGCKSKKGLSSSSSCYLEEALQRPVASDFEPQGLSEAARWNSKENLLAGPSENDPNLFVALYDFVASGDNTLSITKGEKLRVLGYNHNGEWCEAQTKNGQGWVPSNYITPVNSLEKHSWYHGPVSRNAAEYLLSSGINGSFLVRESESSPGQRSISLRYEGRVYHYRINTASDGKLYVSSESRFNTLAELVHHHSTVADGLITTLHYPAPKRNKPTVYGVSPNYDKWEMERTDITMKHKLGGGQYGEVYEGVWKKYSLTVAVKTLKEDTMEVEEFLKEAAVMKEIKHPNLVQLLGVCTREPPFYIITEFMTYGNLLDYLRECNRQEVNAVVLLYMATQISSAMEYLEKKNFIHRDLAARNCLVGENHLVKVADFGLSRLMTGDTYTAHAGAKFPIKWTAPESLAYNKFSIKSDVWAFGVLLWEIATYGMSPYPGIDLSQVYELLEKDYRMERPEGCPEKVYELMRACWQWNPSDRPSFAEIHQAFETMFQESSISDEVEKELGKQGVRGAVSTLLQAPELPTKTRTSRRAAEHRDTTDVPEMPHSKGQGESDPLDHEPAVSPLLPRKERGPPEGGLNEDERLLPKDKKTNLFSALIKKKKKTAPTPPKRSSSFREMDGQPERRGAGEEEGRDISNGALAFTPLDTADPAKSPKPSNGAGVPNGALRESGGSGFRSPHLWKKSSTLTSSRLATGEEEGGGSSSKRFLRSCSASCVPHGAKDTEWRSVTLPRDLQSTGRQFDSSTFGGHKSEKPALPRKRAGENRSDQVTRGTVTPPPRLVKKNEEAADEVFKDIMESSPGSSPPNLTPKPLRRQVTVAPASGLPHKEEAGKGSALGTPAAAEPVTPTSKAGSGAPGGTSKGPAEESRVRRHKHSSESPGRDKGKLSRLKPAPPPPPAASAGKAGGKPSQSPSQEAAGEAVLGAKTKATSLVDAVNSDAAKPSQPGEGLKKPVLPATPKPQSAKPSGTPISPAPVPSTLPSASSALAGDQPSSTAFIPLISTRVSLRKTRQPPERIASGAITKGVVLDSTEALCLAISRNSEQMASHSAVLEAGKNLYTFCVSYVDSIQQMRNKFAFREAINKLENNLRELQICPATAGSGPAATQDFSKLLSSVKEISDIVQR

SMILES	inhibition at 10 µM (ABL) [%]	inhibition at 10 µM (AKT2) [%]	inhibition at 10 µM (CHK2) [%]	inhibition at 10 µM (CK1d) [%]	inhibition at 10 µM (FYN) [%]	inhibition at 10 µM (GSK3b) [%]	inhibition at 10 µM (LYN) [%]	inhibition at 10 µM (MSK1) [%]	inhibition at 10 µM (PKA) [%]	inhibition at 10 µM (PKD2) [%]	inhibition at 10 µM (RSK1) [%]	inhibition at 10 µM (SRC) [%]
CC(=O)Nc1ccc(Oc2ccc3c(=O)[nH]c4ncccc4c3c2)cc1 [Example 81, N-[4-(6-Oxo-5,6-dihydro-benzo[c][1,8]naphthyridin-9-yloxy)-phenyl]-acetamide]	> 90	> 90	70 to 90	70 to 90	> 90	> 90	> 90	> 90	> 90	> 90	70 to 90	> 90
O=c1[nH]c2ncccc2c2cc(Nc3cccc(F)c3)ccc12 [Example 31, 9-(3-Fluoro-phenylamino)-5H-benzo[c][1,8]naphthyridin-6-one]	> 90	> 90	50 to 70	70 to 90	70 to 90	70 to 90	> 90	70 to 90	> 90	> 90	50 to 70	70 to 90
NC(=O)c1ccc(Oc2ccc3c(=O)[nH]c4ncccc4c3c2)cc1 [Example 82]	70 to 90	50 to 70	50 to 70	50 to 70	> 90	70 to 90	70 to 90	50 to 70	70 to 90	50 to 70	50 to 70	50 to 70
